The source of these data is ChEMBL document CHEMBL4342449, “Isolation of a High-Affinity Cannabinoid for the Human CB1 Receptor from a Medicinal Cannabis sativa Variety: Δ9-Tetrahydrocannabutol, the Butyl Homologue of Δ9-Tetrahydrocannabinol” (J Nat Prod, 2020).

Calls of active or inactive are those of the source. The calls are words filed in the database; no cut-off is given here.

In general, Ki refers to a measure of affinity in units of concentration, obtained from inhibition or displacement. A higher Ki goes with lower affinity.

The target in one experiment is Cannabinoid receptor 1 (Homo sapiens, UniProt P21554). As to the kind of experiment: Binding affinity to human CB1 receptor.
For experiment [1], the system named is Mus musculus. As to the kind of experiment: Analgesic activity in formalin-induced nociception CD-1 mouse model assessed as reduction in pain behaviour by measuring less flinching of formalin injected hind paw at 3 mg/kg, ip pretreated with compound 20 mins prior to formalin induction measured during first phase (0 to 7 mins after formalin injection) by formalin test. In kind it is functional, organism-based.

Experiment [2] relates to Mus musculus. Briefly: In vivo Cannabi-mimetic activity in C57BL6/J mouse assessed as antinociceptive effect by measuring licking of hind paws at 20 mg/kg, ip measured for 85 mins by hot plate test (reference value: 10.15 +/- 0.70 sec). The class given is functional.
For experiment [3], the system named is Mus musculus. Briefly: Analgesic activity in formalin-induced nociception CD-1 mouse model assessed as reduction in pain behaviour by measuring less flinching of formalin injected hind paw at 3 mg/kg, ip pretreated with compound 20 mins prior to formalin induction co-treated with AM630 and measured every 5 mins for 1 hr by formalin test. The class given is functional, organism-based.

Experiment [4] concerns Mus musculus. Briefly: Analgesic activity in formalin-induced nociception CD-1 mouse model assessed as reduction in pain behaviour by measuring less favoring of formalin injected hind paw at 3 mg/kg, ip pretreated with compound 20 mins prior to formalin induction co-treated with AM630 and measured every 5 mins for 1 hr by formalin test. The class given is functional, organism-based.

The test system of experiment [5] is Mus musculus. Briefly: In vivo Cannabi-mimetic activity in C57BL6/J mouse assessed as rectal temperature at 20 mg/kg, ip measured after 50 mins (reference value: 0.53 +/- 0.21 degreeC). In kind it is functional.
Experiment [6] has as its system Mus musculus. As to the kind of experiment: Analgesic activity in formalin-induced nociception CD-1 mouse model assessed as reduction in pain behaviour by measuring less lifting of formalin injected hind paw at 3 mg/kg, ip pretreated with compound 20 mins prior to formalin induction co-treated with AM251 and measured every 5 mins for 1 hr by formalin test. The class given is functional, organism-based.

For experiment [7], the system named is Mus musculus. As to the kind of experiment: In vivo Cannabi-mimetic activity in C57BL6/J mouse assessed as antinociceptive effect by measuring licking of hind paws at 10 mg/kg, ip measured for 85 mins by hot plate test (reference value: 10.15 +/- 0.70 sec). The class given is functional.
In experiment [8] the test system is Mus musculus. Briefly: Analgesic activity in formalin-induced nociception CD-1 mouse model assessed as reduction in pain behaviour by measuring less licking of formalin injected hind paw at 3 mg/kg, ip pretreated with compound 20 mins prior to formalin induction co-treated with AM630 and measured every 5 mins for 1 hr by formalin test. In kind it is functional, organism-based.

The subject of experiment [9] is Mus musculus. As to the kind of experiment: In vivo Cannabi-mimetic activity in C57BL6/J mouse assessed as alteration on the spontaneous activity at 20 mg/kg, ip measured for 15 mins by open field test (reference value: 3283 +/- 390.5 cm). In kind it is functional.
Experiment [10] has as its system Mus musculus. Briefly: Analgesic activity in formalin-induced nociception CD-1 mouse model assessed as reduction in pain behaviour by measuring less shaking of formalin injected hind paw at 3 mg/kg, ip pretreated with compound 20 mins prior to formalin induction co-treated with AM630 and measured every 5 mins for 1 hr by formalin test. The class given is functional, organism-based.

The test system of experiment [11] is Mus musculus. As to the kind of experiment: Analgesic activity in formalin-induced nociception CD-1 mouse model assessed as reduction in pain behaviour by measuring less lifting of formalin injected hind paw at 3 mg/kg, ip pretreated with compound 20 mins prior to formalin induction measured during second phase (every 5 mins for 15 to 60 mins after formalin injection) by formalin test. In kind it is functional, organism-based.

For experiment [12], the system named is Mus musculus. As to the kind of experiment: In vivo Cannabi-mimetic activity in C57BL6/J mouse assessed as catalepsy bar at 10 mg/kg, ip by bar test (reference value: 3.5 +/- 0.65 sec). The class given is functional.
Experiment [13] deals with Mus musculus. As to the kind of experiment: In vivo Cannabi-mimetic activity in C57BL6/J mouse assessed as alteration on the spontaneous activity at 10 mg/kg, ip measured for 15 mins by open field test (reference value: 3283 +/- 390.5 cm). The class given is functional.
Experiment [14] has as its system Mus musculus. Briefly: Analgesic activity in formalin-induced nociception CD-1 mouse model assessed as reduction in pain behaviour by measuring less shaking of formalin injected hind paw at 3 mg/kg, ip pretreated with compound 20 mins prior to formalin induction co-treated with AM251 and measured every 5 mins for 1 hr by formalin test. The class given is functional, organism-based.

The test system of experiment [15] is Mus musculus. Briefly: Analgesic activity in formalin-induced nociception CD-1 mouse model assessed as reduction in pain behaviour by measuring less favoring of formalin injected hind paw at 3 mg/kg, ip pretreated with compound 20 mins prior to formalin induction co-treated with AM251 and measured every 5 mins for 1 hr by formalin test. In kind it is functional, organism-based.

The test system of experiment [16] is Mus musculus. As to the kind of experiment: Analgesic activity in formalin-induced nociception CD-1 mouse model assessed as reduction in pain behaviour by measuring less licking of formalin injected hind paw at 3 mg/kg, ip pretreated with compound 20 mins prior to formalin induction co-treated with AM251 and measured every 5 mins for 1 hr by formalin test. The class given is functional, organism-based.

In experiment [17] the test system is Mus musculus. As to the kind of experiment: Analgesic activity in formalin-induced nociception CD-1 mouse model assessed as reduction in pain behaviour by measuring less flinching of formalin injected hind paw at 3 mg/kg, ip pretreated with compound 20 mins prior to formalin induction co-treated with AM251 and measured every 5 mins for 1 hr by formalin test. The class given is functional, organism-based.

Experiment [18] deals with Mus musculus. Briefly: Analgesic activity in formalin-induced nociception CD-1 mouse model assessed as reduction in pain behaviour by measuring less licking of formalin injected hind paw at 3 mg/kg, ip pretreated with compound 20 mins prior to formalin induction measured during first phase (0 to 7 mins after formalin injection) by formalin test. The class given is functional, organism-based.

The subject of experiment [19] is Mus musculus. Briefly: Analgesic activity in formalin-induced nociception CD-1 mouse model assessed as reduction in pain behaviour by measuring less flinching of formalin injected hind paw at 3 mg/kg, ip pretreated with compound 20 mins prior to formalin induction measured during second phase (every 5 mins for 15 to 60 mins after formalin injection) by formalin test. The class given is functional, organism-based.

Experiment [20] has as its system Mus musculus. As to the kind of experiment: Analgesic activity in formalin-induced nociception CD-1 mouse model assessed as reduction in pain behaviour by measuring less lifting of formalin injected hind paw at 3 mg/kg, ip pretreated with compound 20 mins prior to formalin induction co-treated with AM630 and measured every 5 mins for 1 hr by formalin test. The class given is functional, organism-based.

Experiment [21] has as its system Mus musculus. As to the kind of experiment: Analgesic activity in formalin-induced nociception CD-1 mouse model assessed as reduction in pain behaviour by measuring less favoring of formalin injected hind paw at 3 mg/kg, ip pretreated with compound 20 mins prior to formalin induction measured during first phase (0 to 7 mins after formalin injection) by formalin test. The class given is functional, organism-based.

Experiment [22] has as its system Mus musculus. As to the kind of experiment: Analgesic activity in formalin-induced nociception CD-1 mouse model assessed as reduction in pain behaviour by measuring less shaking of formalin injected hind paw at 3 mg/kg, ip pretreated with compound 20 mins prior to formalin induction measured during first phase (0 to 7 mins after formalin injection) by formalin test. The class given is functional, organism-based.

In experiment [23] the test system is Mus musculus. As to the kind of experiment: Analgesic activity in formalin-induced nociception CD-1 mouse model assessed as reduction in pain behaviour by measuring less shaking of formalin injected hind paw at 3 mg/kg, ip pretreated with compound 20 mins prior to formalin induction measured during second phase (every 5 mins for 15 to 60 mins after formalin injection) by formalin test. In kind it is functional, organism-based.

The subject of experiment [24] is Mus musculus. Briefly: In vivo Cannabi-mimetic activity in C57BL6/J mouse assessed as catalepsy bar at 20 mg/kg, ip by bar test (reference value: 3.5 +/- 0.65 sec). The class given is functional.
For experiment [25], the system named is Mus musculus. Briefly: Analgesic activity in formalin-induced nociception CD-1 mouse model assessed as reduction in pain behaviour by measuring less lifting of formalin injected hind paw at 3 mg/kg, ip pretreated with compound 20 mins prior to formalin induction measured during first phase (0 to 7 mins after formalin injection) by formalin test. In kind it is functional, organism-based.

Experiment [26] relates to Mus musculus. As to the kind of experiment: Analgesic activity in formalin-induced nociception CD-1 mouse model assessed as reduction in pain behaviour by measuring less licking of formalin injected hind paw at 3 mg/kg, ip pretreated with compound 20 mins prior to formalin induction measured during second phase (every 5 mins for 15 to 60 mins after formalin injection) by formalin test. In kind it is functional, organism-based.

In experiment [27] the test system is Mus musculus. Briefly: Analgesic activity in formalin-induced nociception CD-1 mouse model assessed as reduction in pain behaviour by measuring less favoring of formalin injected hind paw at 3 mg/kg, ip pretreated with compound 20 mins prior to formalin induction measured during second phase (every 5 mins for 15 to 60 mins after formalin injection) by formalin test. The class given is functional, organism-based.

Experiment [28] deals with Mus musculus. As to the kind of experiment: In vivo Cannabi-mimetic activity in C57BL6/J mouse assessed as rectal temperature at 10 mg/kg, ip measured after 50 mins (reference value: 0.53 +/- 0.21 degreeC). In kind it is functional.

Chain of Cannabinoid receptor 1 (P21554 whole entry): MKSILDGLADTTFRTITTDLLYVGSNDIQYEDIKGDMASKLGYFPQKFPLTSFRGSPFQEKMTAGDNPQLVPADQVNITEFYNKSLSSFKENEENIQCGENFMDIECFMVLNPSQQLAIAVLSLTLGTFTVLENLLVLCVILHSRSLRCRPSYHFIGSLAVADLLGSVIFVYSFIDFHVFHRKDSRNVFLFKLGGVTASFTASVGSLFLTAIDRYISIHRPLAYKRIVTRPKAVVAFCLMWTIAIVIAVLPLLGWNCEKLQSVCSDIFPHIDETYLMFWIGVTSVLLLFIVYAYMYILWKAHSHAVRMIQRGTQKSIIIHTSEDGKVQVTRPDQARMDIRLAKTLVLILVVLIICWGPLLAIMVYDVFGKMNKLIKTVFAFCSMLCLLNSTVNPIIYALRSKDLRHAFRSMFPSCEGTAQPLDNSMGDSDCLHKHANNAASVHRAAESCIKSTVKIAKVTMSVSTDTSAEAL

With `CCCc1cc(O)c2c(c1)OC(C)(C)[C@@H]1CCC(C)=C[C@@H]21` [TETRAHYDROCANNABIVARIN], the Ki at Cannabinoid receptor 1 is 75.4 nM.
`CCCCc1cc(O)c2c(c1)OC(C)(C)[C@@H]1CCC(C)=C[C@@H]21`: the result in the experiment on Mus musculus [1], in the experiment on Mus musculus [11], with Mus musculus [18], in the experiment on Mus musculus [19], in the experiment on Mus musculus [21] and in the experiment with Mus musculus [22] was Active. Also, the result in the experiment with Mus musculus [23], in the experiment on Mus musculus [25], in the experiment on Mus musculus [26] and in the experiment on Mus musculus [27] was Active. In addition, the Time turned out to be 17.5 s in the experiment with Mus musculus [2], 7.94 s with Mus musculus [7], 3 s in the experiment on Mus musculus [12] and 13 s with Mus musculus [24]. Moreover, the result with Mus musculus [3], in the experiment on Mus musculus [4], with Mus musculus [6], in the experiment on Mus musculus [8], in the experiment on Mus musculus [10] and in the experiment on Mus musculus [14] was inactive. For the same compound, the result with Mus musculus [15], in the experiment on Mus musculus [16], with Mus musculus [17] and in the experiment on Mus musculus [20] was inactive. The Activity in the experiment on Mus musculus [5] is 0.4 °C; with Mus musculus [9] it was 3591 cm; in the experiment with Mus musculus [13] it was 3220 cm; in the experiment on Mus musculus [28] it was -0.28 °C.
